Key:
Test in all cases: relative viability (nuclei count vs DMSO), 5 days (fraction); higher = more cells survive
[1] = compound: CN(C/C=C/C1=CC=C(C=C1)Cl)CC2=CC=CC=C2N(CCO)S(=O)(=O)C3=CC=C(C=C3)OC [KN-93] + C[C@@H](Oc1cc(-c2cnn(C3CCNCC3)c2)cnc1N)c1c(Cl)ccc(F)c1Cl [Crizotinib] (partner 1 µM)
Method in brief: (§1)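 Medians of duplicate plates are given as relative viability. That measure is the nuclei count in treated wells divided by the count in vehicle wells. Counts were taken on 4× images of lung cancer cell lines in 1536-well plates, 5 days after pin-tool dosing the day after seeding with one drug alone or a fixed anchor-drug dose plus five library-drug doses (not always all listed) in √10 steps.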

[2] = compound: CN(C/C=C/C1=CC=C(C=C1)Cl)CC2=CC=CC=C2N(CCO)S(=O)(=O)C3=CC=C(C=C3)OC [KN-93] + Nc1nc2[nH]cc(CCc3ccc(C(=O)N[C@@H](CCC(=O)O)C(=O)O)cc3)c2c(=O)[nH]1 [Pemetrexed] (partner 0.2 µM)
Method in brief: as §1

[3] = compound: CN(C/C=C/C1=CC=C(C=C1)Cl)CC2=CC=CC=C2N(CCO)S(=O)(=O)C3=CC=C(C=C3)OC [KN-93] + CC(C)C[C@H](NC(=O)[C@H](Cc1ccccc1)NC(=O)c1cnccn1)B(O)O [Bortezomib] (partner 0.002 µM)
Method in brief: as §1

[4] = compound: CN(C/C=C/C1=CC=C(C=C1)Cl)CC2=CC=CC=C2N(CCO)S(=O)(=O)C3=CC=C(C=C3)OC [KN-93] + Nc1ncn([C@H]2C[C@H](O)[C@@H](CO)O2)c(=O)n1 [Decitabine] (partner 2 µM)
Method in brief: as §1

[5] = compound: CN(C/C=C/C1=CC=C(C=C1)Cl)CC2=CC=CC=C2N(CCO)S(=O)(=O)C3=CC=C(C=C3)OC [KN-93] + COc1cccc2cc(-c3nc([C@H]4CC[C@H](C(=O)O)CC4)n4ncnc(N)c34)[nH]c12 [OSI-027] (partner 0.5 µM)
Method in brief: as §1

| Cell Line | relative viability ([1]; first compound 0.08 µM) | relative viability ([1]; first compound 0.253 µM) | relative viability ([1]; first compound 2.53 µM) | relative viability ([1]; first compound 8 µM) | relative viability ([2]; first compound 0.08 µM) | relative viability ([2]; first compound 0.253 µM) | relative viability ([2]; first compound 2.53 µM) | relative viability ([2]; first compound 8 µM) | relative viability ([3]; first compound 0.08 µM) | relative viability ([3]; first compound 0.253 µM) | relative viability ([3]; first compound 2.53 µM) | relative viability ([3]; first compound 8 µM) | relative viability ([4]; first compound 0.08 µM) | relative viability ([4]; first compound 0.253 µM) | relative viability ([4]; first compound 2.53 µM) | relative viability ([4]; first compound 8 µM) | relative viability ([5]; first compound 0.08 µM) | relative viability ([5]; first compound 0.253 µM) | relative viability ([5]; first compound 2.53 µM) | relative viability ([5]; first compound 8 µM) |
| --- | --- | --- | --- | --- | --- | --- | --- | --- | --- | --- | --- | --- | --- | --- | --- | --- | --- | --- | --- | --- |
| LOU-NH91 | 0.746 | 0.716 | 0.75 | 0.703 | 0.356 | 0.325 | 0.445 | 0.439 | 0.534 | 0.456 | 0.48 | 0.392 | 0.833 | 0.769 | 0.795 | 0.786 | 0.663 | 0.565 | 0.827 | 0.65 |
| LU99A | 0.529 | 0.703 | 0.566 | 0.504 | 0.183 | 0.183 | 0.189 | 0.222 | 1.08 | 1.28 | 1.33 | 0.93 | 0.777 | 0.893 | 0.859 | 0.711 | 0.327 | 0.273 | 0.27 | 0.275 |
| LXF-289 | 0.782 | 0.913 | 0.825 | 0.532 | 0.925 | 0.926 | 0.977 | 0.684 | 0.853 | 1.12 | 1.12 | 0.833 | 0.391 | 0.413 | 0.416 | 0.388 | 0.875 | 0.967 | 0.873 | 0.634 |
| NCI-H23 | 0.446 | 0.54 | 0.574 | 0.534 | 0.685 | 0.866 | 0.883 | 0.502 | 0.878 | 1.07 | 1.14 | 0.893 | 0.849 | 0.306 | 0.296 | 0.288 | 0.566 | 0.544 | 0.662 | 0.344 |
| NCI-H322M | 1.08 | 0.982 | 0.896 | 0.905 | 0.641 | 0.628 | 0.701 | 0.614 | 1.36 | 1.21 | 1.29 | 1.14 | 0.733 | 0.725 | 0.69 | 0.699 | 0.535 | 0.577 | 0.539 | 0.411 |
| NCI-H441 | 0.716 | 0.879 | 0.76 | 0.565 | – | 0.242 | 0.293 | 0.268 | – | 0.672 | 0.365 | 0.22 | – | 0.203 | 0.261 | 0.197 | 0.603 | 0.672 | 0.623 | 0.479 |
| NCI-H460 | 0.387 | 0.985 | 1.33 | 0.449 | 0.0661 | 0.0588 | 0.0591 | 0.0687 | 0.813 | 1.93 | – | 0.717 | 0.282 | 0.409 | 0.579 | 0.46 | 0.863 | 0.825 | 0.603 | 0.223 |
| NCI-H520 | – | 1.08 | 0.759 | 0.586 | 0.72 | 0.738 | 0.658 | 0.422 | – | 0.883 | 0.914 | 0.511 | 0.596 | 0.599 | 0.538 | 0.458 | 0.287 | 0.289 | 0.279 | 0.205 |
| NCI-H596 | 0.906 | 1.09 | 1.03 | 0.691 | 0.528 | 0.493 | 0.589 | 0.455 | 1.02 | 1.29 | 1.18 | 0.942 | 1.03 | 1.19 | 1.08 | 0.824 | 0.769 | 0.726 | 0.755 | 0.252 |
| NCI-H647 | 0.916 | 1.48 | 1.13 | 0.511 | 0.176 | 0.181 | 0.159 | 0.174 | 0.712 | 1.16 | 1.63 | 0.986 | 0.373 | 0.487 | 0.444 | 0.409 | 0.695 | 0.643 | 0.856 | 0.533 |
| NCI-H650 | 0.866 | 0.735 | 0.772 | 0.488 | 1.02 | 0.993 | 1.04 | 0.788 | 0.959 | 0.915 | 1.25 | 0.454 | 0.325 | 0.272 | 0.302 | 0.311 | 0.502 | 0.536 | 0.576 | 0.443 |
| NCI-H661 | 0.855 | 0.875 | 0.988 | 0.761 | 0.89 | 1.15 | 0.753 | 0.504 | 0.735 | 0.901 | 0.713 | 0.665 | 0.539 | 0.527 | 0.543 | 0.378 | 0.693 | 0.741 | 0.606 | 0.273 |
| NCI-H838 | 0.764 | 0.86 | 0.94 | 0.7 | 0.258 | 0.278 | 0.25 | 0.214 | 0.735 | 0.919 | 1.16 | 0.796 | 0.436 | 0.455 | 0.487 | 0.427 | 0.443 | 0.328 | 0.445 | 0.41 |
| NCI-H1355 | 0.915 | 1.11 | 1.15 | 0.837 | 1.11 | 0.918 | 1.27 | 0.972 | 1.11 | 1.11 | 1.3 | 0.895 | 0.367 | 0.298 | 0.317 | 0.315 | 0.405 | 0.295 | 0.41 | 0.246 |
| NCI-H1437 | 0.851 | 1.27 | 0.894 | 0.47 | 0.317 | 0.312 | 0.247 | 0.19 | 0.465 | 0.564 | 0.53 | 0.365 | 0.519 | 0.768 | 0.533 | 0.405 | 0.885 | 0.984 | 0.852 | 0.651 |
| NCI-H1650 | 0.874 | 1.01 | 1.15 | 0.547 | 0.338 | 0.427 | 0.372 | 0.34 | 0.218 | 0.196 | 0.208 | 0.203 | 0.349 | 0.38 | 0.427 | 0.44 | 0.574 | 0.596 | 0.496 | 0.465 |

Source: the supplement of paper PMC10307832
